# Measured values reported in ChEMBL document CHEMBL1137150, “Factor Xa inhibitors based on a 2-carboxyindole scaffold: SAR of neutral P1 substituents” (Bioorg Med Chem Lett, 2004).
# How the values were obtained:
# Serine protease 1 = Serine protease 1 (Homo sapiens, UniProt P07477); test: […]
# [1] = Percent compound remaining after 2 hr incubation with human S9 liver fraction; format: ADME, subcellular; conditions: read-out: Activity
# Coagulation factor X = Coagulation factor X (Homo sapiens, UniProt P00742); test: Inhibitory activity against coagulation factor Xa
# Sequence of Coagulation factor X (P00742 41-179 limits assumed): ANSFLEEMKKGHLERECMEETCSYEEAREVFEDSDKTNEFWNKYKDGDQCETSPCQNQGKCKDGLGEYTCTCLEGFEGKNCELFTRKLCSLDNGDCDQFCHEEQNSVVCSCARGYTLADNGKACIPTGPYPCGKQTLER
# Sequence of Coagulation factor X (P00742 235-488 limits assumed): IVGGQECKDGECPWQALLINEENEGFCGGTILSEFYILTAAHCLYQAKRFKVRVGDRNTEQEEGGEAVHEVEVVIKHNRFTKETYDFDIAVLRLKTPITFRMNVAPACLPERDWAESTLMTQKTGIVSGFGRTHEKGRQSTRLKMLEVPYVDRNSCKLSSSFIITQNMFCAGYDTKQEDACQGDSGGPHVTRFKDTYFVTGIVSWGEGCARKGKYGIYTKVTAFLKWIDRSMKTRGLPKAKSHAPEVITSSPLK
# Prothrombin [2] = target: T1, Prothrombin (Homo sapiens, UniProt P00734); test: Concentration required for 50% inhibition of dilute prothrombin time; format: functional
# Prothrombin [3] = target: T1, Prothrombin; test: Inhibitory activity against coagulation factor II (thrombin)
# [4] = target: Tissue-type plasminogen activator (Homo sapiens, UniProt P00750); test: inhibitory activity against human tissue plasminogen activator
# Sequence of Tissue-type plasminogen activator (P00750 whole entry): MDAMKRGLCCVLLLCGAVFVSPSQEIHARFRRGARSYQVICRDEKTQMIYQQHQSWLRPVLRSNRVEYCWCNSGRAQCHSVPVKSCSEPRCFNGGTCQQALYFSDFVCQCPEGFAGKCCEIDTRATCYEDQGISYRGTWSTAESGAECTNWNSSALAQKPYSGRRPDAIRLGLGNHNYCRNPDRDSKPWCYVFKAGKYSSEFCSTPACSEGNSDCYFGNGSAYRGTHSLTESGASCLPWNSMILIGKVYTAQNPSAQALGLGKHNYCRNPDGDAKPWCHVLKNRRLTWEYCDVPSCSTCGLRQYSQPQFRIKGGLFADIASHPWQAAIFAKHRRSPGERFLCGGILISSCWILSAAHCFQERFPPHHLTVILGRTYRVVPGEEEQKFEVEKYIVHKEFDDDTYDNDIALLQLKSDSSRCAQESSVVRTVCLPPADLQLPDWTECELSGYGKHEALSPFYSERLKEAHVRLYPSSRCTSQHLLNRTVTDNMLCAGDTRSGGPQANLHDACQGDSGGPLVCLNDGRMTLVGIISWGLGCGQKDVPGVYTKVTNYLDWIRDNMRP
# Prothrombin [5] = target: T1, Prothrombin; test: Concentration required to double plasma clotting time of prothrombin time; format: functional, cell-free
# Sequence of Serine protease 1 (P07477 whole entry): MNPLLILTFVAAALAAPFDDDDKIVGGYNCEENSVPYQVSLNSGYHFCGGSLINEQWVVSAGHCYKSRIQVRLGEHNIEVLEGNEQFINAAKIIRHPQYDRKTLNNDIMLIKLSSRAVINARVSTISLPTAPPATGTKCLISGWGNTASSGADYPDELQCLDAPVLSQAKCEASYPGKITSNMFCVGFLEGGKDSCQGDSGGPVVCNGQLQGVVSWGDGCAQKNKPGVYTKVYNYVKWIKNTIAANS
SMILES,Ki (Serine protease 1) [µM],remaining at 2 h [1] [%],Ki (Coagulation factor X) [µM],IC50 (Prothrombin [2]) [µM],Ki (Prothrombin [3]) [µM],Ki [4] [µM],other results
CC(C)N1CCC(NC(=O)c2cc3ccccc3n2Cc2cc(-c3ccc(Cl)s3)on2)CC1,> 100,94,,,,,
COc1cccc(CCn2c(C(=O)NC3CCN(C(C)C)CC3)cc3ccccc32)c1,,,> 10,,,,
CC(C)N1CCC(NC(=O)c2cc3ccccc3n2CC(=O)Nc2cccc(Cl)c2)CC1,,,0.287,,,,
CC(C)N1CCC(NC(=O)c2cc3ccccc3n2Cc2cc3ccc(Cl)cc3s2)CC1,> 100,98,,0.89,9.04,> 100,Concentration (Prothrombin [5]): 14.1 µM
COc1cccc(-n2c(C(=O)NC3CCN(C(C)C)CC3)cc3ccccc32)c1,,,2.48,,,,
CC(C)N1CCC(NC(=O)c2cc3ccccc3n2Cc2cnc(-c3ccc(Cl)cc3)s2)CC1,,,2.73,,,,
CC(C)N1CCC(NC(=O)c2cc3ccccc3n2-c2cccc(Cl)c2)CC1,,,9.01,,,,
CC(C)N1CCC(NC(=O)c2cc3ccccc3n2Cc2ccc(Cl)cc2)CC1,,,2.5,,,,
CC(C)N1CCC(NC(=O)c2cc3ccccc3n2CC(=O)Nc2ccc(Cl)cn2)CC1,> 100,95,,0.02,> 10,> 100,
CC(C)N1CCC(NC(=O)c2cc3ccccc3n2CC(=O)Nc2ccc(Cl)cc2)CC1,> 100,67,,0.02,> 10,> 100,
